Two compounds from patent US12661353B2, “SPT5 inhibitors and uses thereof” (Yeda Research and Development Co. Ltd., priority 2020, dated 2026) can be followed below.

Each structure is given as a SMILES string.

As a reminder, the IC50 is the concentration needed to halve the response being measured.

For assay [1], the target named is T1, Rpb1 CC domain (His-Rpb1) (Homo sapiens, UniProt P24928).
T1 construct: His tag; made in house; host or cells: E. coli; purified on nickel agarose beads
The assay can be described thus: Binding assay by intrinsic fluorescence of purified His-Rpb1. The conditions noted are these: read-out: IC50, decrease of intrinsic fluorescence of Rpb1 (Pol II). The procedure: Binding assay—In order to measure binding of the indicated compound to Spt5 and/or Pol II; Spt5-Spt4 or Rpb1 fused to a histidine (His) tag were expressed in E. coli (SEQ ID Nos: 2-3, 5-6 and 81) and purified on nickel agarose beads as described in Ashkenazi et al. 2016. The proteins were incubated for 10 minutes with increasing concentrations of the indicated compound in a black 384 wells microplate in a total volume of 20 μl. Binding was assessed by measuring the changes in the intrinsic fluorescence (280 nm) using Cytation™ 5 (BioTek).
Two identified compounds, SPI-21 and SPI-18, were further validated for their direct interaction with either Spt5 or Rpb1 CC domain. […] Using the purified proteins, fluorescence intensity measurements were performed in the presence of increasing concentrations of SPI-21 or SPI-18. This method analyzes binding by monitoring the changes in the intrinsic fluorescence of the proteins as a consequence of conformational changes. […]
Direct interaction with either the Spt5 or the Rpb1 CC domain of SPI-21 and SPI-18 was further validated. […] Using the purified proteins, fluorescence intensity measurements were performed in the presence of increasing concentrations of SPI-21 and SPI-18. This method analyzes binding by monitoring the changes in the intrinsic fluorescence of the proteins as a consequence of conformational changes. […]

The subject of another assay is mutant (Q111) Htt. Put plainly: Htt mRNA levels in Q111 striatal cells, qPCR. Further: key: + represent a statistically significant effect. Format: cell-based, mouse. The conditions noted are these: Q111 striatal cells, 48 hours. The procedure:
Cell culture—HEK293T, HeLa, MCF7, Jurkat and mouse embryonic fibroblasts (MEFs) cells were grown and maintained in Dulbecco's modified Eagle's medium supplemented with 10% fetal calf serum (Gibco) and 1% penicillin-streptomycin. To avoid NF-κB activity, HeLa cells were kept from reaching confluence and re-plated no more than 10 times following initial thawing. To induce NF-κB activity, cells were treated with […] recombinant human TNF-α (Peprotech) for the indicated times. STHdh Q111 and STHdh Q7 striatal cell lines (Coriell Institute for Medical Research) were grown in Dulbecco's modified Eagle's medium supplemented with 10% fetal calf serum (Gibco), 1% penicillin-streptomycin and 0.4 mg/ml G418 at 33° C. The cells were re-plated no more than 5-6 times, as recommended.
Huntington's disease (HD) is an inherited genetic disorder caused by expansion trinucleotide CAG repeats (36 and higher) encoding glutamine (Q) in the huntingtin (Htt) gene. Expression of the mutant gene in neurons of the striatum and the frontal cortex leads to degeneration of neuronal cells that control body movements, emotions and intellect. […] To examine the potential effect of SPIs in this context, striatal cell lines established from wild type (Q7) or from mutant (Q111) Htt knock-in mice were used. In these cell lines the coding region of the first exon of the mouse Htt gene was replaced with the same region of human wild type (Q7) or mutant (Q111) Htt, as schematically shown in FIG. 6A. The two cell lines were treated for 48 hours with the identified SPIs and following the levels of Htt mRNA were determined.
The compounds were tested as described in Example 4 hereinabove. In brief, Q111 (or Q7, where indicated) expressing Striatal cells were treated with the tested compound at the indicated concentrations for 48 hours. Then, RNA was extracted and levels of Htt mRNA were determined by qRT-PCR and normalized to β-actin. The data was analysed using GraphPad Prism software.
On the technique in general: Quantitative PCR measures a nucleic acid by following its amplification.

The test system of a further assay is Spt5 activities. The assay can be described thus: Combined effects on the various Spt5 activities (summary of Examples 1-4). Format: cell-based.
The subject of the next assay is GDF15. Put plainly: GDF15 mRNA levels, HeLa, qPCR. Format: cell-based, human. As to the method: RNA analysis—Total RNA was extracted using Tri-reagent (Bio-Lab Chemicals) and Direct-Zol™ RNA MiniPrep kit (Zymo Research). Following, cDNA was synthesized from […] of total RNA using a High-Capacity cDNA Reverse Transcription Kit (ABI, Thermo Fisher Scientific). cDNA samples were analyzed by quantitative PCR (qPCR) in a ViiA 7 Real-Time PCR System using Fast qPCRBIO SYBR Green Mix (PCR Biosystems).
GDF15 is a member of the TGF-β superfamily and is associated with regulation of body-weight and food intake in humans and rodents (Emmerson et al., 2017; Hsu et al., 2017; Mullican et al., 2017; Tsai et al., 2018; Yang et al., 2017). […] To test this possibility, GDF15 expression was analyzed following 2 and 24 hours treatment with SPI-21. […] The dramatic elevation of GDF15 was also seen by other identified SPIs (FIG. 4G) and was not limited to HeLa cells but was also detected in other human and mouse cell lines (FIG. 4H). Thus, the utilization of SPIs enables distinguishing between temporary and constitutive Spt5-regulated genes and unveiled a previously unknown but significant role of Spt5 in the control of an important mammalian metabolic pathway via GDF15.

T1 sequence (P24928 8-370): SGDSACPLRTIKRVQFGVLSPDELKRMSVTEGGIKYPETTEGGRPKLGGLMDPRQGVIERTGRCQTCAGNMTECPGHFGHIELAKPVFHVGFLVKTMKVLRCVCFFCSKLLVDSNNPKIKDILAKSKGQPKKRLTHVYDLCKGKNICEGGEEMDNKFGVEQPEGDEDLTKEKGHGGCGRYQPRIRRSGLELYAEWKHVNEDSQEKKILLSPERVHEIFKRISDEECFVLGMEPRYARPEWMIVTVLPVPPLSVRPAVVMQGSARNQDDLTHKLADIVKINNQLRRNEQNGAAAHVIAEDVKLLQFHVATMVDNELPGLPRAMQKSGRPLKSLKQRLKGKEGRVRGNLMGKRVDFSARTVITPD

For the compound `Nc1ccccc1SC(CC(=O)c1cccs1)c1cccs1` (centres unmarked) [SPI-18], the IC50 in assay [1] was 76 µM. Further, the “Down-regulating transcription of Mutant Htt (i.e. inhibiting transcription elongation of mutant Htt gene induced by Spt5)” value in the assay on mutant (Q111) Htt was “+”. Besides, the “classification by effect on the various Spt5 activities, in words” value in the assay with Spt5 activities is “inhibited mainly the positive activity of Spt5 with little or no effect on proximal promoter pausing”.
Turning to `COc1ccc(C=CC(=O)c2cc(O)ccc2O)cc1` [SPI-21], the IC50 in assay [1] was determined as 23 µM. The “Down-regulating transcription of Mutant Htt (i.e. inhibiting transcription elongation of mutant Htt gene induced by Spt5)” value with mutant (Q111) Htt is listed as “+”. Also, the GDF15 up-regulation result in the assay with GDF15 (2 hours treatment) is listed as “moderately up-regulated”; in the assay with GDF15 (24 hours treatment) it was “about 100 fold”. For the same compound, the “classification by effect on the various Spt5 activities, in words” value in the assay with Spt5 activities is recorded as “affect all the tested Spt5 activities”.
